Results from paper PMC8041823, “Structural comparison of Acinetobacter baumannii β-ketoacyl-acyl carrier protein reductases in fatty acid and aryl polyene biosynthesis” (Scientific Reports, 2021).

Target: T1, AbApeQ (Acinetobacter baumannii, UniProt Z9NHK5QJZ4)
T1 construct: full-length, pET28a, N-terminal His-tag removed with thrombin, expressed in E. coli BL21 (DE3)
Assay: X-ray crystallography (co-crystallization)
Assay type: binding
Conditions: 1:3 molar ratio of NADPH; 0.2 M potassium sodium tartrate, 20% PEG 3350; active site; NADPH density in two of four molecules

NC(=O)C1=CN([C@@H]2O[C@H](COP(=O)(O)OP(=O)(O)OC[C@H]3O[C@@H](n4cnc5c(N)ncnc54)[C@H](OP(=O)(O)O)[C@@H]3O)[C@@H](O)[C@H]2O)C=CC1 [NADPH]
X-ray crystallography (co-crystallization): We obtained the structure of the AbApeQ–NADPH complex by co-crystallization of AbApeQ and NADPH.
